Data as given in patent US7456165B2, “HCV NS5B inhibitors” (Bristol-Myers Squibb Company, priority 2006, dated 2008).
Like-named read-outs stand apart in the source and are kept apart here.

What was measured:
HCV NS5B = target: T1, HCV NS5B (Hepatitis C virus genotype 1b, UniProt Q9WMX2); assay: HCV NS5B RdRp enzyme assay (preincubation protocol); format: biochemical; settings: HCV NS5B RdRp genotype 1b
T1 construct: The protein was expressed with an 18 amino acid C-terminal truncation to enhance the solubility; made in house; host or cells: E. coli BL21(DE3)
T1 sequence (Q9WMX2 2420-2992): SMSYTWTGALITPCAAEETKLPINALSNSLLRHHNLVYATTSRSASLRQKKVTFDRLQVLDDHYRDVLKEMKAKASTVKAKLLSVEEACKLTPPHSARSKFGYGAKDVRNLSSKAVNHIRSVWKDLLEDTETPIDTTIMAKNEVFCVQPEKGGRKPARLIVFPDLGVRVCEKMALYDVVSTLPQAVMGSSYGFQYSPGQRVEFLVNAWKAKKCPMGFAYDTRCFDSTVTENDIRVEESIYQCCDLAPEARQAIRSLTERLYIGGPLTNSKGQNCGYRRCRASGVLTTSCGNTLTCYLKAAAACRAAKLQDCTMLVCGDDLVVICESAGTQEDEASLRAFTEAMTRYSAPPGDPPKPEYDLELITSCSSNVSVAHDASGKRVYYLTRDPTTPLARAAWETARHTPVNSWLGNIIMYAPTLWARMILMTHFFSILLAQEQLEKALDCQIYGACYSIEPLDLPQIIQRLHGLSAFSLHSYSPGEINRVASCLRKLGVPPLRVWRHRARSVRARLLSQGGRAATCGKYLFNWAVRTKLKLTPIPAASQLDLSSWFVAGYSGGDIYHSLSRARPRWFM
Procedure: HCV NS5B RdRp cloning, expression, and purification. The cDNA encoding the NS5B protein of HCV, genotype 1b, was cloned into the pET21a expression vector. The protein was expressed with an 18 amino acid C-terminal truncation to enhance the solubility. The E. coli competent cell line BL21(DE3) was used for expression of the protein. Cultures were grown at 37° C. for ˜4 hours until the cultures reached an optical density of 2.0 at 600 nm. The cultures were cooled to 20° C. and induced with 1 mM IPTG. Fresh ampicillin was added to a final concentration of 50 μg/ml and the cells were grown overnight at 20° C.
Cell pellets (3 L) were lysed for purification to yield 15-24 mgs of purified NS5B. The lysis buffer consisted of 20 mM Tris-HCl, pH 7.4, 500 mM NaCl, 0.5% triton X-100, 1 mM DTT, 1 mM EDTA, 20% glycerol, 0.5 mg/ml lysozyme, 10 mM MgCl2, 15 ug/ml deoxyribonuclease I, and Complete TM protease inhibitor tablets (Roche). After addition of the lysis buffer, frozen cell pellets were resuspended using a tissue homogenizer. To reduce the viscosity of the sample, aliquots of the lysate were sonicated on ice using a microtip attached to a Branson sonicator. The sonicated lysate was centrifuged at 100,000×g for 1 hr at 4° C. and filtered through a 0.2 μm filter unit (Corning).
The protein was purified using three sequential chromatography steps: Heparin sepharose CL-6B, polyU sepharose 4B, and Hitrap SP sepharose (Pharmacia). The chromatography buffers were identical to the lysis buffer but contained no lysozyme, deoxyribonuclease I, MgCl2 or protease inhibitor and the NaCl concentration of the buffer was adjusted according to the requirements for charging the protein onto the column. Each column was eluted with a NaCl gradient which varied in length from 5-50 column volumes depending on the column type. After the final chromatography step, the resulting purity of the enzyme is >90% based on SDS-PAGE analysis. The enzyme was aliquoted and stored at −80° C.
Standard HCV NS5B RdRp enzyme assay. HCV RdRp genotype 1b assays were run in a final volume of 60 μl in 96 well plates (Costar 3912 H. The assay buffer is composed of 20 mM Hepes, pH 7.5, 2.5 mM KCl, 2.5 mM MgCl2, 1 mM DTT, 1.6 U RNAse inhibitor (Promega N2515), 0.1 mg/ml BSA (Promega R3961), and 2% glycerol. All compounds were serially diluted (3-fold) in DMSO and diluted further in water such that the final concentration of DMSO in the assay was 2%. HCV RdRp genotype 1b enzyme was used at a final concentration of 28 nM. A polyA template was used at 6 nM, and a biotinylated oligo-dT12 primer was used at 180 nM final concentration. Template was obtained commercially (Amersham 27-4110). Biotinylated primer was prepared by Sigma Genosys. 3H-UTP was used at 0.6 μCi (0.29 μM total UTP). Reactions were initiated by the addition of enzyme, incubated at 30° C. for 60 min, and stopped by adding 25 μl of 50 mM EDTA containing SPA beads (4 μg/μl, Amersham RPNQ 0007 H. Plates were read on a Packard Top Count NXT after >1 hr incubation at room temperature.
Modified HCV NS5B RdRp enzyme assay. A modified enzyme assay was performed essentially as described for the standard enzyme assay except for the following: The biotinylated oligo dT12 primer was precaptured on streptavidin-coated SPA beads by mixing primer and beads in assay buffer and incubating at room temperature for one hour. Unbound primer was removed after centrifugation. The primer-bound beads were resuspended in 20 mM Hepes buffer, pH 7.5 and used in the assay at final concentrations of 20 nM primer and 0.67 μg/μl beads. Order of addition in the assay: enzyme (14 nM) was added to diluted compound followed by the addition of a mixture of template (0.2 nM), 3H-UTP (0.6 μCi, 0.29 μM), and primer-bound beads, to initiate the reaction; concentrations given are final. Reactions were allowed to proceed for 4 hours at 30° C.
IC50 values for compounds were determined using seven different [I]. […]

HCV replicon cells = assay: HCV replicon FRET assay; format: cell-based
Text: FRET Assay Preparation. To perform the HCV FRET screening assay, 96-well cell culture plates were used. The FRET peptide (Anaspec, Inc.) (Taliani et al., Anal Biochem. 1996, 240, 60-67) contains a fluorescence donor, EDANS, near one end of the peptide and an acceptor, DABCYL, near the other end. The fluorescence of the peptide is quenched by […] resonance energy transfer (RET) between the donor and the acceptor, but as the NS3 protease cleaves the peptide the products are released from RET quenching and the fluorescence of the donor becomes apparent. The assay reagent was made as follows: 5× cell Luciferase cell culture lysis reagent from Promega (#E153A) diluted to 1× with dH2O, NaCl added to 150 mM final, the FRET peptide diluted to 20 μM final from a 2 mM stock.
To prepare plates, HCV replicon cells, with or without a Renilla luciferase reporter gene, were trypsinized and placed into each well of a 96-well plate with titrated test compounds added in columns 3 through 12; columns 1 and 2 contained a control compound (HCV protease inhibitor), and the bottom row contained cells without compound. The plates were then placed in a CO2 incubator at 37° C.
Assays. Subsequent to addition of the test compounds described above (FRET Assay Preparation), at various times the plate was removed and Alamar blue solution (Trek Diagnostics, #00-100) was added per well as a measure of cellular toxicity. After reading in a Cytoflour 4000 instrument (PE Biosystems), plates were rinsed with PBS and then used for FRET assay by the addition of 30 ul of the FRET peptide assay reagent described above (FRET Assay Preparation) per well. The plate was then placed into the Cytoflour 4000 instrument which had been set to 340 excite/490 emission, automatic mode for 20 cycles and the plate read in a kinetic mode. Typically, the signal to noise using an endpoint analysis after the reads was at least three-fold. Alternatively, after Alamar blue reading, plates were rinsed with PBS, 50 ul of DMEM (high glucose) without phenol red was added and plates were then used for luciferase assay using the Promega Dual-Glo Luciferase Assay System.
Compound analysis was determined by quantification of the relative HCV replicon inhibition and the relative cytotoxicity values. To calculate cytoxicity values, the average Alamar Blue fluorescence signals from the control wells were set as 100% non-toxic. The individual signals in each of the compound test wells were then divided by the average control signal and multiplied by 100% to determine […]. To calculate the HCV replicon inhibition values, an average background value was obtained from the two wells containing the highest amount of HCV protease inhibitor at the end of the assay period. These numbers were similar to those obtained from naïve Huh-7 cells.
The background numbers were then subtracted from the average signal obtained from the control wells and this number was used as 100% activity. The individual signals in each of the compound test wells were then divided by the averaged control values after background subtraction and multiplied by 100% to determine percent activity. EC50 values for a protease inhibitor titration were calculated as the concentration which caused a 50% reduction in FRET or luciferase activity. The two numbers generated for the compound plate, percent cytoxicity and percent activity were used to determine compounds of interest for further analysis.

**Q.** Which IC50 (HCV NS5B) does the source give for `COc1ccc2c(c1)CC(c1ncc(CCC(=O)N3CCOCC3)o1)Cn1c-2c(C2CCCCC2)c2ccc(C(=O)O)cc21` (racemic) [Example 50, 13-Cyclohexyl-3-methoxy-6-(5-(3-(4-morpholinyl)-3-oxopropyl)-1,3-oxazol-2-yl)-6,7-dihydro-5H-indolo[2,1-a][2]benzazepine-10-carboxylic acid] here?
**A.** 1 to 500 nM

**Q.** And the EC50 (HCV replicon cells; Hepatitis C virus)?
**A.** 1 to 500 nM

**Q.** What does the source list for `COc1ccc2c(c1)CC(c1ncc(CCC(=O)N3CCOCC3)o1)Cn1c-2c(C2CCCCC2)c2ccc(C(=O)O)cc21` (single isomer, unassigned) [Example 51, 13-Cyclohexyl-3-methoxy-6-(5-(3-(4-morpholinyl)-3-oxopropyl)-1,3-oxazol-2-yl)-6,7-dihydro-5H-indolo[2,1-a][2]benzazepine-10-carboxylic acid]?
**A.** IC50 (HCV NS5B): 1 to 500 nM; EC50 (HCV replicon cells): > 500 nM

**Q.** `COc1ccc2c(c1)CC(c1ncc(CCC(=O)N3CCOCC3)o1)Cn1c-2c(C2CCCCC2)c2ccc(C(=O)O)cc21` (single isomer, unassigned) [Example 52, 13-Cyclohexyl-3-methoxy-6-(5-(3-(4-morpholinyl)-3-oxopropyl)-1,3-oxazol-2-yl)-6,7-dihydro-5H-indolo[2,1-a][2]benzazepine-10-carboxylic acid] was tested. Which IC50 (HCV NS5B) did it give?
**A.** 1 to 500 nM

**Q.** And the EC50 (HCV replicon cells)?
**A.** 1 to 500 nM

**Q.** `COc1ccc2c(c1)CC(c1ncc(CCC(=O)N3CCOCC3)o1)Cn1c-2c(C2CCCCC2)c2ccc(C(=O)NS(=O)(=O)N(C)C)cc21` (single isomer, unassigned) [Example 53, 13-Cyclohexyl-N-((dimethylamino)sulfonyl)-3-methoxy-6-(5-(3-(4-morpholinyl)-3-oxopropyl)-1,3-oxazol-2-yl)-6,7-dihydro-5H-indolo[2,1-a][2]benzazepine-10-carboxamide] was tested. Which IC50 (HCV NS5B) did it give?
**A.** 1 to 500 nM

**Q.** What about the EC50 (HCV replicon cells; Hepatitis C virus) of the same compound?
**A.** 1 to 500 nM

**Q.** What does the source list for `COc1ccc2c(c1)C[C@H](c1ncc(CCC(=O)N3CCOCC3)o1)Cn1c-2c(C2CCCCC2)c2ccc(C(=O)NS(=O)(=O)N(C)C)cc21` (single isomer, unassigned) [Example 54, 13-cyclohexyl-N-((dimethylamino)sulfonyl)-3-methoxy-6-(5-(3-(4-morpholinyl)-3-oxopropyl)-1,3-oxazol-2-yl)-6,7-dihydro-5H-indolo[2,1-a][2]benzazepine-10-carboxamide]?
**A.** IC50 (HCV NS5B): 1 to 500 nM; EC50 (HCV replicon cells; Hepatitis C virus): 1 to 500 nM

**Q.** `COC(=O)c1ccc2c(C3CCCCC3)c3n(c2c1)CC(c1nnn[nH]1)=Cc1ccccc1-3` [Example 1, 13-cyclohexyl-6-(1H-tetrazol-5-yl)-7H-indolo[2,1-a][2]benzazepine-10-carboxylic acid, methyl ester] was tested. Which IC50 (HCV NS5B) did it give?
**A.** > 500 nM

**Q.** What about the EC50 (HCV replicon cells; Hepatitis C virus) of the same compound?
**A.** > 500 nM

**Q.** For `CCn1nnc(C2=Cn3c(c(C4CCCCC4)c4ccc(C(=O)O)cc43)-c3ccccc3C2)n1` [Example 2, 13-cyclohexyl-6-(2-ethyl-2H-tetrazol-5-yl)-5H-indolo[2,1-a][2]benzazepine-10-carboxylic acid], which IC50 (HCV NS5B) is on record?
**A.** 1 to 500 nM

**Q.** What about the EC50 (HCV replicon cells; Hepatitis C virus) of the same compound?
**A.** > 500 nM

**Q.** For `CCn1nnc(C2=Cc3ccccc3-c3c(C4CCCCC4)c4ccc(C(=O)O)cc4n3C2)n1` [Example 3, 13-cyclohexyl-6-(2-ethyl-2H-tetrazol-5-yl)-7H-indolo[2,1-a][2]benzazepine-10-carboxylic acid], which IC50 (HCV NS5B) is on record?
**A.** 1 to 500 nM

**Q.** And the EC50 (HCV replicon cells; Hepatitis C virus)?
**A.** > 500 nM

**Q.** For `CCn1nnc(C2=Cc3ccccc3-c3c(C4CCCCC4)c4ccc(C(=O)NS(=O)(=O)N(C)C)cc4n3C2)n1` [Example 4], which IC50 (HCV NS5B) is on record?
**A.** 1 to 500 nM

**Q.** What about the EC50 (HCV replicon cells; Hepatitis C virus) of the same compound?
**A.** > 500 nM

**Q.** `O=C(O)c1ccc2c(C3CCCCC3)c3n(c2c1)CC(c1nnn(CCO)n1)=Cc1ccccc1-3` [Example 5, 13-cyclohexyl-6-[2-(2-hydroxyethyl)-2H-tetrazol-5-yl]-7H-indolo[2,1-a][2]benzazepine-10-carboxylic acid] was tested. Which IC50 (HCV NS5B) did it give?
**A.** > 500 nM

**Q.** What about the EC50 (HCV replicon cells; Hepatitis C virus) of the same compound?
**A.** > 500 nM

**Q.** With `O=C(O)c1ccc2c(C3CCCCC3)c3n(c2c1)CC(c1nnn(CC2CC2)n1)=Cc1ccccc1-3` [Example 6, 13-cyclohexyl-6-[2-(cyclopropylmethyl)-2H-tetrazol-5-yl]-7H-indolo[2,1-a][2]benzazepine-10-carboxylic acid] as the compound, how does the IC50 (HCV NS5B) read?
**A.** > 500 nM

**Q.** And the EC50 (HCV replicon cells; Hepatitis C virus)?
**A.** > 500 nM

**Q.** Which results are given for `O=C(O)c1ccc2c(C3CCCCC3)c3n(c2c1)C=C(c1nnn(CC2CC2)n1)Cc1ccccc1-3` [Example 7, 13-cyclohexyl-6-[2-(cyclopropylmethyl)-2H-tetrazol-5-yl]-5H-indolo[2,1-a][2]benzazepine-10-carboxylic acid]?
**A.** IC50 (HCV NS5B): > 500 nM; EC50 (HCV replicon cells; Hepatitis C virus): > 500 nM

**Q.** Which results are given for `O=C(O)c1ccc2c(C3CCCCC3)c3n(c2c1)CC(c1nnn(CC2CCCO2)n1)=Cc1ccccc1-3` (stereo not shown) [Example 8, 13-cyclohexyl-6-[2-[(tetrahydro-2-furanyl)methyl]-2H-tetrazol-5-yl]-5H-indolo[2,1-a][2]benzazepine-10-carboxylic acid]?
**A.** IC50 (HCV NS5B): 1 to 500 nM; EC50 (HCV replicon cells; Hepatitis C virus): > 500 nM

**Q.** `COC(=O)c1ccc2c(C3CCCCC3)c3n(c2c1)CC(c1ncc(CCC(=O)N2CCOCC2)o1)Cc1cc(OC)ccc1-3` (stereo not shown) [Example 49, Methyl 13-cyclohexyl-3-methoxy-6-(5-(3-(4-morpholinyl)-3-oxopropyl)-1,3-oxazol-2-yl)-6,7-dihydro-5H-indolo[2,1-a][2]benzazepine-10-carboxylate] was tested. Which IC50 (HCV NS5B) did it give?
**A.** > 500 nM

**Q.** Which IC50 (HCV NS5B) does the source give for `COC(=O)c1ccc2c(C3CCCCC3)c3n(c2c1)CC(c1ncco1)=Cc1cc(OC)ccc1-3` [Example 55, Methyl 13-cyclohexyl-3-methoxy-6-(1,3-oxazol-2-yl)-7H-indolo[2,1-a][2]benzazepine-10-carboxylate] here?
**A.** > 500 nM
